Data taken from patent publication US8722654B2, “Lipoxin analogs as novel inhibitors of angiogenesis” (The Brigham and Women's Hospital, Inc., priority 2001, dated 2014).
Each block holds one molecule with its values, some of them ahead of it.

Legend:
HUVEC [1] = assay: HUVEC proliferation induced by the compound alone (MTT); type: cell-based, human
Procedure: (§1) Human umbilical vein endothelial cells (HUVEC) were isolated by 0.1% collagenase digestion (Worthington Biochemical, Bedford, Mass.) and propagated on gelatin-coated (0.1%) tissue culture plates in medium 199 (Gibco BRL, Grand Island, N.Y.) supplemented with 20% heat-inactivated fetal bovine serum (BioWhittaker, Walkersville, Md.), 50 μg/ml of endothelial cell mitogen (Biomedical Technologies, Stoughton, Mass.), 8 U/ml heparin (APP, Los Angeles, Calif.), 50 U/ml penicillin and 15 μg/ml streptomycin. Only passages 2 and 3 were used in reported experiments.
(§2) HUVEC (5×10^3) were plated in 96-well plates coated with 0.1% gelatin for 1 h at room temperature. After 24 h, the medium was removed and replaced with fresh medium 199 supplemented with 5% fetal bovine serum and different concentrations of recombinant human VEGF165 (R&D Systems, Minneapolis, Minn.), LTD4 or LTB4. Endothelial cells were enumerated after 72 h using the MTT® assay (Sigma, St. Louis, Mo.) (15). ATL-1 was prepared as in Clish et al. (13). Percent inhibition was evaluated in a similar manner and included a 15 minute incubation (37° C.) with 15-epi-lipoxin A4, 15-epi-16-(para-fluoro)-phenoxy-lipoxin A4 methyl ester (ATL-1), LXA4, 15-epi-LXA4 or 15-R/S-methyl, LXA4 prior to the addition of agonists. All incubations were performed in triplicate. Before each experiment the integrity and concentration of ATL-1, LXA4, 15-epi-LXA4 or 15-R/S-methyl, LXA4 was assessed by physical methods including LC/MS/MS and UV (13).

HUVEC [2] = assay: Inhibition of VEGF-stimulated HUVEC proliferation (MTT); type: cell-based, human; details: for % inhibition of VEGF-stimulated proliferation: equimolar 10 nM, representative experiment
Procedure: as §1, §2

[3] = Mean arterial pressure after i.v. dosing; type: in vivo; details: 10 μg/mouse i.v.
HUVEC [4] = assay: HUVEC viability, trypan blue exclusion assay; type: cell-based, human; details: after exposure to ATL-1
HUVEC [5] = assay: Inhibition of LTD4-stimulated HUVEC proliferation (MTT); type: cell-based, human; details: LTD4 10 nM; ATL-1 0.1-100 nM; read-out: IC50, antagonism of mitogenic action of LTD4
Procedure: as §1
as §2, with “Endothelial cells were enumerated after 72 h using the MTT® assay (Sigma, St. Louis, Mo.) (15). ATL-1 was prepared as in Clish et al. (13).” left out, “All incubations were performed in triplicate.” left out

HUVEC [6] = assay: Quantitative determination of DNA fragmentation (apoptosis); type: cell-based, human; details: 100 nM alone or with VEGF 3 ng/ml; n=2, d=3
Procedure: DNA fragmentation in individual apoptotic cells was quantitated using a photometric enzyme immunoassay (Apotosis detection kit: R&D Systems). HUVECs grown in 96-well microtiter plates (5×10^3 cells/well) were incubated for 3 days, fixed with 3.7% formaldehyde, and permeabilized with proteinase K before the labeling. Biotinylated nucleotides are incorporated onto the DNA fragments and detected by using steptavidin-horseradish peroxidase conjugate followed by the substrate TACS-Sapphire.

HUVEC [7] = assay: Endothelial cell migration, 48-well chemotaxis chamber; type: cell-based, human; details: for induction of endothelial cell migration, compound alone: 100 nM, no VEGF
Procedure: VEGF, ATL-1 or vehicle were added to the lower wells of a 48-well chemotaxis chamber (NeuroProbe, Cabin John, Md.). The wells were overlaid with a 10 μm pore size polycarbonate filter coated with 0.1% gelatin. HUVEC (1×10^6) were placed in the upper wells and the chamber was incubated (37° C., 5% CO2 for 12 h). Following incubations, filters were removed, scraped of cells from the upper surface, fixed and stained with Diff-Quik (Dade Behring, Newark, Del.). Cells that migrated across the filter toward the lower surface were enumerated by light microscopy; four fields were counted at high magnification (100×). Incubations were performed in triplicate. To assess inhibition, endothelial cells were suspended in media with vehicle or ATL-1 for 15 min before placement in the chamber.

murine air pouch = assay: Inflammatory angiogenesis, VEGF-treated murine air pouch; type: in vivo, mice (BALB/c)
Procedure: Angiogenesis was assessed with murine air pouches that were raised via subcutaneous injection of sterile air (3 ml) beneath the dorsal skin of anesthetized mice (BALB/c, male 6-8 wk). After 24 hrs, ATL-1 (10 μg/pouch) or vehicle was delivered locally, immediately before the injection of VEGF (1 μg/pouch). The vascular content was assessed by the formation of vascular casts (as in 16). Briefly, mice were anesthetized (at 144 h) and peripheral vasodilation was raised by placing the animals in a heated jacket (40° C., 10 min). Vascular casts were formed by the i.v. injection of 1 ml 5% carmine red (Sigma) in 5% gelatin solution warmed to 40° C. Air pouch linings were dissected and weighed. The tissue was then dissolved in 2 ml of 3 N NaOH solution for 0.5 h, 21° C. and completely digested in hot water (56° C.) for 10 min. Digested samples were centrifuged (2500 rpm, 15 min) and filtered through a 0.45 μm filter. The dye content was quantified employing a 96-well plate spectrophotometer at 530 nm using a calibration curve. The results were expressed as vascular index (VI) as micrograms carmine dye/milligram weight of tissue, for n=4 animals/group. For visualization of the vasculature, the dorsal surface of the pouches was excised and fixed in formalin for 48 h. The tissues were dehydrated with 100% ethanol (5 days, 4° C.) and cleared by immersion in cedar wood oil for 2 weeks. In another set of experiments, mice were anesthetized and injected i.v. with 200 μl of 0.05 g/ml fluorescein isothiocyanate-dextran (Sigma) in PBS at 144 h immediately before sacrifice. Dissected linings were fixed, mounted on glass slides and examined for fluorescence (Nikon Eclipse model E600). In both protocols, the observers were not blinded to the treatments.
Air pouch membranous tissues were fixed in 10% buffered formalin overnight and processed for paraffin embedding. Five-micrometer paraffin sections of membrane tissue cut on face were used for immunohistochemistry for CD31 expression. Briefly, slides were deparaffinized and pretreated in 0.25% trypsin (Sigma Chemical) for 20 min at 37° C., followed by washing in distilled water. All further steps were performed at room temperature in a hydrated chamber. Slides were pretreated with Peroxidase Block (DAKO, Carpinteria, Calif.) for 5 min to quench endogenous peroxidase activity, followed by a 1:5 dilution of goat serum in 50 Mm Tris-Cl, pH 7.4, for 20 min to block nonspecific binding sites. Primary rat anti-murine CD31 antibody (BD PharMingen, San Diego, Calif.) was applied at a 1:100 dilution in 50 mMTris-Cl, pH 7.4, with 3% goat serum for 1 h. After washing in 50 mM Tris-Cl, pH 7.4, secondary rabbit anti-rat antibody (DAKO) was applied at a 1:200 dilution in 50 mM Tris-Cl, pH 7.4, with 3% goat serum for 30 min. Slides were washed again in 50 mM Tris-Cl, pH 7.4, and goat anti-rabbit horseradish peroxidase-conjugated antibody (Envision detection kit: DAKO) was applied for 30 min. After further washing, immunoperoxidase staining was developed using a DAB chromogen kit (DAKO) per the manufacturer and counterstained with hematoxylin.

Molecule: VEGF [reference compound]
VEGF response, proliferation of HUVEC (HUVEC [1]; VEGF comparison in LTD4 experiment): 52.7±1.6%
VEGF-induced proliferation (HUVEC [1]; footnote of table, VEGF comparison): VEGF-induced proliferation: 50.4 ± 4.0%

changes in mean arterial pressure [3]: does not evoke apparent changes
Molecule: O=C(O)CCC[C@H](O)[C@H](O)/C=C/C=C/C=C\C=C\[C@@H](O)COc1ccc(F)cc1 [ATL-1, 15-epi-16-(para-fluoro)-phenoxy-lipoxin A4]
action on HUVEC proliferation, analog alone (HUVEC [1]; 100 nM, no VEGF): no apparent actions
% of VEGF-stimulated proliferation (HUVEC [2]; ATL-1 plus genistein 50 μM, 5 min, 37° C., n=3): 78.0±6.21%
% of VEGF-stimulated proliferation (HUVEC [2]; ATL-1 without genistein): 38.0±2.5%
IC50 (HUVEC [2]; VEGF 3 ng/ml, 3 days, MTT, read-out: IC50, inhibition of VEGF-stimulated proliferation of HUVECs): ~3 nM
concentration of maximal plateau of inhibition (HUVEC [2]; VEGF-stimulated proliferation): 10 nM
% inhibition of VEGF-stimulated proliferation (HUVEC [2]): 63.3±3.3%
HUVEC remaining viable (HUVEC [4]): ~98%
IC50 (HUVEC [5]): ~3 nM
DNA fragmentation pattern (HUVEC [6]): Neither the ATL-1 (100 nM) alone nor in combination with VEGF (3 ng/ml) affected DNA fragmentation pattern
maximum level of inhibition of VEGF-stimulated HUVEC migration (HUVEC [7]; 10 nM, VEGF 3 ng/ml): ~45%
induction of endothelial cell migration, compound alone (HUVEC [7]): did not induce endothelial cell migration
inhibition of VEGF-stimulated HUVEC migration (HUVEC [7]; VEGF 3 ng/ml): concentration-dependent inhibition
reduction in the vascular index (murine air pouch; 10 μg/pouch local, before VEGF 1 μg/pouch, day 6): ~48%
VEGF-elicited vasculature, fluorescein isothiocyanate-dextran microscopy (murine air pouch; 10 μg/pouch, day 6): striking reduction of VEGF-elicited vasculature
vessels by CD31 immunohistochemical staining (murine air pouch; VEGF-treated mice): marked diminution of vessels
vascular density, carmine vascular casts (murine air pouch; VEGF-treated, day 6 air pouch linings): clearly reduced vascular density

Molecule: CCCCC[C@H](O)/C=C/C=C\C=C\C=C\[C@@H](O)[C@@H](O)CCCC(=O)O (relative stereo) [LXA4, 5S,6R,15S-trihydroxy-7,9,13-trans-11-cis-eicosatetraenoic acid]
% inhibition of VEGF-stimulated proliferation (HUVEC [2]): 38.1±2.0%
induction of endothelial cell migration, compound alone (HUVEC [7]): did not induce endothelial cell migration
inhibition of VEGF-stimulated HUVEC migration (HUVEC [7]; VEGF 3 ng/ml): concentration-dependent inhibition

Molecule: CCCCC[C@H](O)[C@@H](O)/C=C/C=C/C=C\C=C\[C@@H](O)CCCC(=O)O [14-epi-LXB4]
Percent of Proliferation (HUVEC [1]; 0.1 nM): 15.5 ± 1.0%
Percent of Proliferation (HUVEC [1]; 1.0 nM): 18.3 ± 1.6%
Percent of Proliferation (HUVEC [1]; 10 nM): 27.0 ± 5.0%
Percent of Proliferation (HUVEC [1]; 100 nM): 27.7 ± 1.3%

Molecule: CCCCC[C@@H](O)/C=C/C=C\C=C\C=C\[C@@H](O)[C@@H](O)CCCC(=O)O (relative stereo) [15-epi-LXA4, 5S,6R,15R-trihydroxy-7,9,13-trans-11-cis-eicosatetraenoic acid]
% inhibition of VEGF-stimulated proliferation (HUVEC [2]): 59.8±1.8%
induction of endothelial cell migration, compound alone (HUVEC [7]): did not induce endothelial cell migration
inhibition of VEGF-stimulated HUVEC migration (HUVEC [7]; VEGF 3 ng/ml): concentration-dependent inhibition

Molecule: CCCCC[C@H](O)[C@H](O)/C=C/C=C/C=C\C=C\[C@@H](O)CCCC(=O)O [15-epi-LXB4]
Percent of Proliferation (HUVEC [1]; 0.1 nM): 20.1 ± 1.2%
Percent of Proliferation (HUVEC [1]; 1.0 nM): 26.1 ± 2.8%
Percent of Proliferation (HUVEC [1]; 10 nM): 34.0 ± 2.5%
Percent of Proliferation (HUVEC [1]; 100 nM): 35.2 ± 5.2%

Molecule: CCCCCC(C)(O)/C=C/C=C\C=C\C=C\[C@@H](O)[C@@H](O)CCCC(=O)OC (relative stereo) [15-R/S-methyl, LXA4, 5S,6R,15R/S-trihydroxy-15-methyl-7,9,13-trans-11-cis-eicosatetraenoic acid, methyl ester]
induction of endothelial cell migration, compound alone (HUVEC [7]): did not induce endothelial cell migration
inhibition of VEGF-stimulated HUVEC migration (HUVEC [7]; VEGF 3 ng/ml): concentration-dependent inhibition

Molecule: CCCCC/C=C\C[C@@H](O)/C=C/C=C/C=C\[C@@H](O)CCCC(=O)O [LTB4, reference compound]
stimulated proliferation of HUVEC (HUVEC [1]; 10 nM): did not give a significant response
neovascularization, compound alone (murine air pouch; 10 μg/pouch alone, n=2): stimulated neovascularization

Molecule: CCCCC/C=C\C\C=C/C=C/C=C/[C@@H](SC[C@H](N)C(=O)NCC(=O)O)[C@@H](O)CCCC(=O)O [LTD4, reference compound]
stimulated proliferation of HUVEC (HUVEC [1]; 10 nM): 42±1.2%
effect of LTD4 on VEGF-stimulated proliferation (HUVEC [2]): did not enhance or inhibit
